Experimental findings from patent US20220381657A1, “METHOD FOR PREPARING BIOLOGICAL MATERIAL HAVING EXCELLENT LIGHT-TRANSMITTING PROPERTY” (RIKEN, priority 2016, published 2022) are described below.

Structures can show the parent of a compound that is named as a salt. Where two headings read alike, the source gives them in different places.

The conditions of series [1]: for 400 nm: OD at 400 nm of the chemical.
The nature of series [2]: Refractive index of high-concentration aqueous solution. The format is physicochemical. An excerpt:
The refractive index of an aqueous solution is commonly known to increase in a solute concentration-dependent manner, and the refractive index of a reagent per unit weight of the reagent varies among individual reagents. Accordingly, two properties are required in order to prepare a high refractive index aqueous solution: (1) an extremely high water-solubility and (2) a […] which allows achieving a high refractive index in a low-concentration aqueous solution.

In a further series the test system is bovine coagulated blood. Description: Decoloring screening: heme eluted from bovine coagulated blood (OD420-OD700). The following applies: decolorization; for 700 nm calibrated 420 nm Average: OD420 calibrated by OD700; for integrated value 500-700 nm Average: integrated absorbance 500-700 nm.
The target of the next series is EGFP (Aequorea victoria, UniProt P42212, F64L/H231L/S65T). It is filed as biochemical. The following applies: for retention of fluorescence of a fluorescent protein: stated in the description; for 2nd quenching assay EGFP fluorescence: Table 3. Here is the method: (FIG. 7). […] A mouse hemisphere was treated with use of each 10 wt % chemical solution at 37° C. for 3 days, and was washed with PBS. Subsequently, the mouse hemisphere was subjected to refractive index adjustment with CUBIC-2A.

In series [3] the test system is fixed brain tissue suspension. Description: 1st delipidation assay: solubilization of fixed brain tissue suspension, turbidity at 600 nm. The arrangement: species or system mice. Particulars: Table 1; 10 wt % chemical, fixed mouse brain suspension, 37° C. overnight; PBS = 1.000. The procedure: Specifically, brains taken out of mice were sheared with a utility knife and then were disrupted by ultrasonication. To each of the resultant suspensions, an equal volume of 8% PFA solution was added to perform fixation at 4° C. for 1 hour. The resultant mixture was centrifuged to remove the supernatant, and the fixed brain tissue was washed with PBS for 3 times. PBS was added so as to obtain 2 mL of a fixed brain tissue suspension per brain. The fixed brain tissue suspension was diluted by 3.5 folds. To 20 μL of the resultant suspension, 130 μL of each 10 wt % chemical was added and was shaken at 37° C. overnight. Thus obtained mixed solutions were subjected to absorbance (turbidity) measurement at 600 nm. It is expected that a chemical solution which reduces the turbidity of a fixed brain suspension allows reducing light scattering by solubilizing lipids, which act as a scattering factor, in the brain tissue.

[4] abbreviates: Table 3, chemical conc. 80 wt %.
Setting [5] is: Table 3, chemical conc. 70 wt %.

The molecule `CCCC[n+]1ccccc1.[Br-]` [#0315, 1-Butyl-pyridinium bromide] displayed an OD400 in series [1] (Table 3) of 0.048. For the setting “Table 3”, the pH turned out to be 5.6. Further, the RI in series [2] (Table 3, chemical conc. 85 wt %) is recorded as 1.5090.
Molecule `CCCC[N+](CCCC)(CCCC)Cc1ccccc1.[Cl-]` [#0307, Benzyltributyl- ammonium chloride] came in with an RI in series [2] (setting [4]) of 1.4939.
On to `NCCCn1ccnc1` [#0484, 1-(3-aminopropyl)imidazole], for which, in series [1], the 400 nm came to 0.05. In addition, in the series on Serius (relative fluorescence), the “Fluorescence quench Average” value is reported as 0.72. For the same molecule, the pH ([…]) worked out at 12.9. Also, in the series on bovine coagulated blood, the “700 nm calibrated 420 nm Average” value was 4.81 and the “integrated value 500-700 nm Average” value came out at 2.64. Further, the “retention of fluorescence of a fluorescent protein” value (shortened to “retention”) on EGFP was “allows fluorescence of a fluorescent protein to be retained”.
The molecule `Cc1cccc(C)c1NC1=NCCCS1.Cl` [#1612, Xylazine hydrochloride] returned an RI in series [2] (setting [5]) of 1.4956.
For “Decyldimethyl(3- sulfopropyl)ammonium [#0651]”, in series [1], the 400 nm is reported as 0.048. The OD400 in series [1] (Table 1) amounted to 0.048. Moreover, the “Fluorescence quench Average” value in the series with Serius (relative fluorescence) is reported as 0.97. The same molecule returned a pH (Table 1) of 7.5 and a pH ([…]) of 7.5. Besides, in the series with bovine coagulated blood, the “700 nm calibrated 420 nm Average” value was 3.73. The “integrated value 500-700 nm Average” value in the series with bovine coagulated blood stood at 3.28. In addition, on EGFP, the “retention” value was “allows fluorescence of a fluorescent protein to be retained”.
`CN(C)CCSSCCN(C)C` [#0299, Bis(2-dimethyl-aminoethyl) disulfide dihydrochloride]: in series [2] (setting [5]), the RI worked out at 1.4937.
`Cc1ccc(C(=O)C(C)CN2CCCCC2)cc1.Cl` (stereo not shown) [#1392, Tolperisone hydrochloride] gave an OD400 in series [1] (Table 3) of 0.056. The molecule also displayed a pH (Table 3) of 5.2. In series [2] (setting [5]), this molecule returned an RI of 1.4939.
With `NCCCNCCCN` [#0785, 3,3′-Diamino-dipropylamine], the “Fluorescence quench Average” value in the series on Serius is 0.62. Further, in the series with bovine coagulated blood, the “700 nm calibrated 420 nm Average” value was 2.09 and the “integrated value 500-700 nm Average” value turned out to be 1.48. This molecule also came in with an RI in series [2] (Table 3, chemical conc. 100 wt %) of 1.4895.
In series [1] (Table 3), `CCCC[n+]1ccccc1.[Cl-]` [#0415, 1-Butyl-pyridinium chloride] had an OD400 of 0.055. This molecule yielded a pH (Table 3) of 5.5. In addition, in series [2] (Table 3, chemical conc. 90 wt %), the RI stood at 1.4824.
In turn, `[O-][n+]1ccccc1` [#1078, Pyridine N- oxide] returned an OD400 in series [1] (Table 3) of 0.054. The molecule further yielded a pH (Table 3) of 6.1. This molecule showed an RI in series [2] (Table 3, chemical conc. 60 wt %) of 1.4795.
Regarding `Cc1cccc(C)n1` [#1008, 2,6-Lutidine], in series [1], the 400 nm was 0.063. The OD400 in series [1] (Table 1) was determined as 0.063. The “Fluorescence quench Average” value in the series with Serius (relative fluorescence) is on record as 0.71. The pH reads like this: (Table 1) 9.9; ([…]) 9.9. For the same molecule, the “700 nm calibrated 420 nm Average” value with bovine coagulated blood is 2.00. For the same molecule, in the series with bovine coagulated blood, the “integrated value 500-700 nm Average” value turned out to be 2.16. Also, the “1st delipidation assay Relative OD600” value in series [3] is recorded as 0.314.
As for `CN(C)C(=O)Oc1cccc([N+](C)(C)C)c1` [#0864, Neostigmine bromide], on EGFP, the “2nd quenching assay EGFP fluorescence” value was “quench free” and the “retention” value was “allowing retention of fluorescence of a fluorescent protein”. In series [2] (setting [5]), the RI was 1.4830.
In turn, `Cc1cccc[n+]1[O-]` [#1140, 2-Methyl-pyridine N-oxide] returned an OD400 in series [1] (Table 3) of 0.049. This molecule also showed a pH (Table 3) of 6.2. The same molecule gave an RI in series [2] (setting [5]) of 1.4919.
In turn, `CC1(C)CC(N)CC(C)(CN)C1` (stereo not shown) [#1602, Isophoronediamine] returned a 400 nm in series [1] of 0.051. In series [1] (Table 1), this molecule returned an OD400 of 0.051. Moreover, the “Fluorescence quench Average” value in the series on Serius (relative fluorescence) was 0.53. Besides, the pH worked out at 10.8 (Table 1) and 10.8 ([…]). Further, in the series with bovine coagulated blood, the “700 nm calibrated 420 nm Average” value is given as 2.08. Moreover, the “integrated value 500-700 nm Average” value with bovine coagulated blood is 1.26. Further, the “1st delipidation assay Relative OD600” value in series [3] turned out to be 0.190.
Molecule `C[N+](C)(Cc1ccccc1)c1ccccc1.[Cl-]` [#0450, Benzyl- dimethyl- phenyl- ammonium chloride] returned an OD400 in series [1] (Table 3) of 0.052. This molecule also displayed a pH (Table 3) of 6.7. Further, on EGFP, the “2nd quenching assay EGFP fluorescence” value was “quench free” and the “retention” value is “allowing retention of fluorescence of a fluorescent protein”. Also, in series [2] (setting [5]), the RI was 1.5002.
`CNCC(O)c1cccc(O)c1.Cl` (racemic) [#1142, DL- Phenylephrine hydrochloride]: the RI in series [2] was found to be 1.4954.
Consider `NCCN1CCNCC1` [#0338, N-(2-Aminoethyl) piperazine], for which the OD400 in series [1] (Table 3) is on record as 0.062. The same molecule showed a pH (Table 3) of 12.4. The molecule also yielded an RI in series [2] (Table 3, chemical conc. 75 wt %) of 1.4794.
The molecule `NCc1cccnc1` [#1102, 3-Picolylamine] had a 400 nm in series [1] of 0.056. In series [1] (Table 3), this molecule came in with an OD400 of 0.056. For the same molecule, the “Fluorescence quench Average” value in the series with Serius (relative fluorescence) is 0.77. For the same molecule, the pH was determined as 11.6 (Table 3) and 11.6 ([…]). In the series on bovine coagulated blood, the “700 nm calibrated 420 nm Average” value came out at 2.46. The “integrated value 500-700 nm Average” value in the series with bovine coagulated blood is on record as 1.32. Besides, in series [2] (setting [5]), the RI came out at 1.4895.
On to Tween ® 40 [#1455], for which the 400 nm in series [1] was determined as 0.083. The OD400 in series [1] (Table 1) was 0.083. In addition, in the series with Serius (relative fluorescence), the “Fluorescence quench Average” value is on record as 0.64. The pH runs as follows: (Table 1) 6.4; ([…]) 6.4. Besides, in the series with bovine coagulated blood, the “700 nm calibrated 420 nm Average” value turned out to be 1.38. For the same molecule, the “integrated value 500-700 nm Average” value in the series on bovine coagulated blood stood at 1.21. Moreover, in series [3], the “1st delipidation assay Relative OD600” value came to 0.073.
Regarding `C[C@H](CCC(=O)[O-])[C@H]1CC[C@H]2[C@@H]3CC[C@@H]4C[C@H](O)CC[C@]4(C)[C@H]3C[C@H](O)[C@]12C.[Na+]` [#0562, Sodium deoxycholate], the 400 nm in series [1] is reported as 0.054. In series [1] (Table 1), the OD400 is 0.054. In addition, in the series with Serius (relative fluorescence), the “Fluorescence quench Average” value stood at 1.08. The pH (Table 1) is reported as 8.3. Moreover, the pH ([…]) worked out at 8.3. In the series with bovine coagulated blood, the “700 nm calibrated 420 nm Average” value is 1.18 and the “integrated value 500-700 nm Average” value is given as 0.98. Moreover, in series [3], the “1st delipidation assay Relative OD600” value stood at 0.170.
For the molecule `Cc1cc[n+]([O-])cc1` [#1145, 4- Methylpyridine N-oxide], the OD400 in series [1] (Table 3) worked out at 0.059. The molecule further returned a pH (Table 3) of 7.3. The same molecule yielded an RI in series [2] (setting [5]) of 1.5073.
As for `CN(C)CCOC(c1ccccc1)c1ccccc1.Cl` [#0809, Diphen- hydramine hydrochloride], in series [2] (setting [5]), the RI was determined as 1.4990.
Consider `Cc1cc(=O)n(-c2ccccc2)n1C` [#0640, 2,3-Dimethyl-1-phenyl-5-pyrazolone], for which the “Fluorescence quench Average” value in the series on Serius is reported as 0.84. Further, in the series with bovine coagulated blood, the “700 nm calibrated 420 nm Average” value is 1.22 and the “integrated value 500-700 nm Average” value is on record as 0.93. Further, on EGFP, the “2nd quenching assay EGFP fluorescence” value was “quench free” and the “retention” value was “allowing retention of fluorescence of a fluorescent protein”. For the same molecule, the RI in series [2] turned out to be 1.4966.
Consider `CCN(CC)C(=O)c1cccnc1` [#0609, N,N-Diethyl- nicotinamide], for which, in series [1] (Table 3), the OD400 is listed as 0.056. The same molecule had a pH (Table 3) of 6.4. The RI in series [2] (setting [4]) was determined as 1.4928.
`CN(C)CCSC(=N)N` [#0830, S-[2-(Dimethyl-amino)ethyl] isothiourea-dihydrochloride] registered an OD400 in series [1] (Table 3) of 0.047. The pH (Table 3) is 5.4. In addition, the RI in series [2] (setting [5]) came out at 1.5021.
As for `NCC1CCC(CN)CC1` (stereo not shown) [#0071, 1,4-Bis(aminomethyl) cyclohexane], the 400 nm in series [1] was 0.054. In addition, the OD400 in series [1] (Table 1) worked out at 0.054. For the same molecule, the “Fluorescence quench Average” value in the series on Serius (relative fluorescence) was found to be 0.56. For the same molecule, the pH is given as 13.3 (Table 1), 13.27 (Table 4) and 13.3 ([…]). Also, the “700 nm calibrated 420 nm Average” value in the series with bovine coagulated blood is reported as 3.25. Also, the “integrated value 500-700 nm Average” value in the series with bovine coagulated blood amounted to 1.90. Further, the “1st delipidation assay Relative OD600” value in series [3] is recorded as 0.318.
`CCCCCCCCCCCC[n+]1ccccc1.[Cl-]` [#0635, 1-Dodecylpyridinium chloride] registered a 400 nm in series [1] of 0.053. This molecule also registered an OD400 in series [1] (Table 1) of 0.053. Further, the “Fluorescence quench Average” value with Serius (relative fluorescence) was 1.04. The same molecule came in with a pH (Table 1) of 8.9. Besides, the pH ([…]) is 8.9. In the series with bovine coagulated blood, the “700 nm calibrated 420 nm Average” value is listed as 3.86 and the “integrated value 500-700 nm Average” value is 3.57. The “retention” value on EGFP is given as “allows fluorescence of a fluorescent protein to be retained”.
